In the supplement of paper PMC8149375:

Experiments:
Settings in all cases: treatment: drug + dasatinib (fixed dose, not stated); 5 days
769-P [1] = assay: GI50 of drug in presence of dasatinib; higher = less potent
Description: (§1)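 Primary HTS combination arm: 8 RCC cell lines treated with 8 doses (up to 10 uM) of each library drug plus a fixed dose of dasatinib (dose not stated) for 5 days; viability read by CellTiter-Glo and normalised to DMSO. GI50 was fitted with XLfit, AUC is the area under the dose-response curve, and minimum viability is the lowest fraction of DMSO viability across doses.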

UO-31 [2] = assay: as above
Description: as §1

SN12C [3] = assay: as above
Description: as §1

TK-10 [4] = assay: as above
Description: as §1

A498 [5] = assay: as above
Description: as §1

CAKI-1 [6] = assay: as above
Description: as §1

769-P [7] = assay: minimum viability across doses, drug + dasatinib, relative to DMSO (fraction); higher = less growth inhibition
Description: as §1

786-O [8] = assay: as above
Description: as §1

UO-31 [9] = assay: as above
Description: as §1

ACHN [10] = assay: as above
Description: as §1

SN12C [11] = assay: as above
Description: as §1

TK-10 [12] = assay: as above
Description: as §1

A498 [13] = assay: as above
Description: as §1

CAKI-1 [14] = assay: as above
Description: as §1

769-P [15] = assay: AUC of dose-response viability curve, drug + dasatinib, normalised to DMSO (arbitrary (AUC of normalised viability)); higher = less growth inhibition
Description: as §1

786-O [16] = assay: as above
Description: as §1

UO-31 [17] = assay: as above
Description: as §1

ACHN [18] = assay: as above
Description: as §1

SN12C [19] = assay: as above
Description: as §1

TK-10 [20] = assay: as above
Description: as §1

A498 [21] = assay: as above
Description: as §1

CAKI-1 [22] = assay: as above
Description: as §1

786-O [23] = assay: GI50 of drug in presence of dasatinib; higher = less potent
Description: as §1

Row | SMILES | GI50 of drug (769-P [1]) [µM] | GI50 of drug (UO-31 [2]) [µM] | GI50 of drug (SN12C [3]) [µM] | GI50 of drug (TK-10 [4]) [µM] | GI50 of drug (A498 [5]) [µM] | GI50 of drug (CAKI-1 [6]) [µM] | minimum viability across doses (769-P [7]) | minimum viability across doses (786-O [8]) | minimum viability across doses (UO-31 [9]) | minimum viability across doses (ACHN [10]) | minimum viability across doses (SN12C [11]) | minimum viability across doses (TK-10 [12]) | minimum viability across doses (A498 [13]) | minimum viability across doses (CAKI-1 [14]) | AUC of dose-response viability curve (769-P [15]) | AUC of dose-response viability curve (786-O [16]) | AUC of dose-response viability curve (UO-31 [17]) | AUC of dose-response viability curve (ACHN [18]) | AUC of dose-response viability curve (SN12C [19]) | AUC of dose-response viability curve (TK-10 [20]) | AUC of dose-response viability curve (A498 [21]) | AUC of dose-response viability curve (CAKI-1 [22]) | GI50 of drug (786-O [23]) [nM]
1 | CC1CCN(C(=O)CC#N)C[C@@H]1N(C)c1ncnc2[nH]ccc12.O=C(O)CC(O)(CC(=O)O)C(=O)O (stereo in doubt) + Cc1nc(Nc2ncc(C(=O)Nc3c(C)cccc3Cl)s2)cc(N2CCN(CCO)CC2)n1 [dasatinib] | > 10 | > 10 | > 10 | > 10 | > 10 | > 10 | 0.681 | 0.439 | 0.934 | 0.304 | 0.69 | 0.647 | 0.887 | 0.567 | 2.6 | 1.92 | 3.69 | 1.7 | 2.48 | 2.51 | 3.5 | 2.56 | –
2 | O=C1NC(=O)/C(=C/c2ccc3nccnc3c2)S1 + Cc1nc(Nc2ncc(C(=O)Nc3c(C)cccc3Cl)s2)cc(N2CCN(CCO)CC2)n1 [dasatinib] | 8.39 | > 10 | > 10 | > 10 | > 10 | 4.25 | 0.491 | 0.464 | 0.879 | 0.479 | 0.704 | 0.64 | 0.781 | 0.343 | 2.33 | 2.15 | 3.46 | 2.01 | 2.56 | 2.57 | 3.09 | 2.23 | 1550
3 | OCCn1cc(-c2cnc3nnn(Cc4ccc5ncccc5c4)c3n2)cn1 + Cc1nc(Nc2ncc(C(=O)Nc3c(C)cccc3Cl)s2)cc(N2CCN(CCO)CC2)n1 [dasatinib] | > 10 | > 10 | > 10 | > 10 | > 10 | – | 0.651 | 0.702 | 0.926 | 0.448 | 0.614 | 0.688 | 0.872 | 0.408 | 2.44 | 2.79 | 3.41 | 1.77 | 2.32 | 2.57 | 3.25 | 2.02 | > 10000
4 | NC(=O)c1ccc(-c2nc(-c3ccc4c(c3)OCO4)c(-c3ccccn3)[nH]2)cc1 + Cc1nc(Nc2ncc(C(=O)Nc3c(C)cccc3Cl)s2)cc(N2CCN(CCO)CC2)n1 [dasatinib] | – | > 10 | > 10 | > 10 | > 10 | 3 | 0.234 | 0.485 | 0.844 | 0.317 | 0.446 | 0.636 | 0.592 | 0.456 | 1.77 | 2.24 | 3.57 | 2.08 | 2.41 | 2.75 | 3.17 | 2.18 | 2370
